{
  "source": "ChEMBL document CHEMBL4007390",
  "about": "“Design, synthesis and biological evaluation of indolin-2-one-based derivatives as potent, selective and efficacious inhibitors of FMS-like tyrosine kinase3 (FLT3)” (Eur J Med Chem, 2017)",
  "key": {"786-0": {"system": "786-0", "assay": "Antiproliferative activity against human 786-O cells harboring VHL after 72 hrs by MTS assay", "assay_type": "functional, cell-based", "conditions": "786-0, 72 h"}, "Cytochrome P450 1A2": {"biological_target": "Cytochrome P450 1A2 (Homo sapiens, UniProt P05177)", "assay": "Inhibition of microsomal CYP1A2 (unknown origin) using phenacetin as substrate preincubated for 5 mins followed by NADPH addition by LC-MS/MS analysis", "assay_type": "ADME"}, "[1]": {"biological_target": "AMPK alpha2/beta1/gamma1 (Homo sapiens) (UniProt P54646+P54619+Q9Y478)", "assay": "Inhibition of human AMPK alpha2/beta1/gamma1 at 0.1 uM relative to control", "assay_type": "protein-complex assay"}, "[2]": {"biological_target": "Tyrosine-protein kinase SYK (Homo sapiens) (UniProt P43405)", "assay": "Inhibition of human SYK at 0.1 uM relative to control"}, "[3]": {"biological_target": "Vascular endothelial growth factor receptor 1 (Homo sapiens) (UniProt P17948)", "assay": "Inhibition of human VEGFR1 at 0.1 uM relative to control"}, "MV4-11 [4]": {"system": "MV4-11", "assay": "Antiproliferative activity against human MV4-11 cells harboring FLT3 ITD mutant after 72 hrs by MTS assay", "assay_type": "functional, cell-based", "conditions": "MV4-11, 72 h"}, "Cytochrome P450 2C8": {"biological_target": "Cytochrome P450 2C8 (Homo sapiens, UniProt P10632)", "assay": "Inhibition of microsomal CYP2C8 (unknown origin) using amodiaquine as substrate preincubated for 5 mins followed by NADPH addition by LC-MS/MS analysis", "assay_type": "ADME"}, "[5]": {"biological_target": "T1, Platelet-derived growth factor receptor alpha (Homo sapiens, UniProt P16234)", "T1 sequence (P16234 whole entry)": "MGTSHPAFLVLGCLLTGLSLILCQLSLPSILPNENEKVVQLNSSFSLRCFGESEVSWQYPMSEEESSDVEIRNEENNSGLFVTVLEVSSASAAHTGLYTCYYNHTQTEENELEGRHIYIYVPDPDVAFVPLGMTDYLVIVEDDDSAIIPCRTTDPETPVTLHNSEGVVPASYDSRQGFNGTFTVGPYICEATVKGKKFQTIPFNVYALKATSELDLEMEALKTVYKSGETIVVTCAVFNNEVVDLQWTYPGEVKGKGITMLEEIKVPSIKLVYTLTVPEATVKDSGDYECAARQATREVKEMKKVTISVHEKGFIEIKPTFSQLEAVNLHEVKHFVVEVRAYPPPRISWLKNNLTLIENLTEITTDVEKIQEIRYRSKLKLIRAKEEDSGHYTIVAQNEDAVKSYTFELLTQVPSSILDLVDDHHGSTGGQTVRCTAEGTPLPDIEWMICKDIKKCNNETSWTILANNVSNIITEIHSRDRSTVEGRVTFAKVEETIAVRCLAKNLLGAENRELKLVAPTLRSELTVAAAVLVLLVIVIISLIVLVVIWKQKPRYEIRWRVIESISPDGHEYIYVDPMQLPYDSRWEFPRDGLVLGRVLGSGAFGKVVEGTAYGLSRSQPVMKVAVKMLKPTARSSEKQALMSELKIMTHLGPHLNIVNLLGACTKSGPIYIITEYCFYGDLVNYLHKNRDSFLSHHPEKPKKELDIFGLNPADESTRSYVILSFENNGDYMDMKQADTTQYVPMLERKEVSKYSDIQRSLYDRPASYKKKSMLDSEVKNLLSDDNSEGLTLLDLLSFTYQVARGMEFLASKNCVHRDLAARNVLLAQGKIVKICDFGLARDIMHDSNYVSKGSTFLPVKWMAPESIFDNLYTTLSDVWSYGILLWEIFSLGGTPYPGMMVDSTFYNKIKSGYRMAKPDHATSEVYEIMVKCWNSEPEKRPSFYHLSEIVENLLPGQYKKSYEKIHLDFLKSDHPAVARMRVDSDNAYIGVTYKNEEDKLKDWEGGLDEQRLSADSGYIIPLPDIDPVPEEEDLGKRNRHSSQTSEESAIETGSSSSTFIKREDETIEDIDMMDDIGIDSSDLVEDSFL", "assay": "Inhibition of human PDGFRalpha at 0.1 uM relative to control"}, "MV4-11 [6]": {"system": "MV4-11", "assay": "Antitumor activity against human MV4-11 cells xenografted in Harlan nude mouse assessed as tumor growth inhibition at 40 mg/kg, ig bid for 20 days relative to control", "assay_type": "functional", "conditions": "MV4-11, po, 480 h, read-out: TGI"}, "Cytochrome P450 3A4 [7]": {"biological_target": "T2, Cytochrome P450 3A4 (Homo sapiens, UniProt P08684)", "T2 sequence (P08684 whole entry)": "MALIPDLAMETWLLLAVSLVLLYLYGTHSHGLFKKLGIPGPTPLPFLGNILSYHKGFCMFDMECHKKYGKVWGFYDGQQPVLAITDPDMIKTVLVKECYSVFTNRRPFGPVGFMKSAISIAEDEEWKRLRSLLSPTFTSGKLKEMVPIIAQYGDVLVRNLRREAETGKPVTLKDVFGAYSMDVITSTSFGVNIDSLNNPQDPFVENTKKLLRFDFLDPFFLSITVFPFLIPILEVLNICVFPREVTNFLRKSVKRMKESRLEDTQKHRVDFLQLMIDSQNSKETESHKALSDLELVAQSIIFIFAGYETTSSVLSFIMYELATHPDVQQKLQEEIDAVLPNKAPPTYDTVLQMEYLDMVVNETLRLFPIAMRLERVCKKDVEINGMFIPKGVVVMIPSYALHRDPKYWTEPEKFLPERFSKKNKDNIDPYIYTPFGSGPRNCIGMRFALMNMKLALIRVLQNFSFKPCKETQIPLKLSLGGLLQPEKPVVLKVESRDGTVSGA", "assay": "Inhibition of microsomal CYP3A4 (unknown origin) using midazolam as substrate preincubated for 5 mins followed by NADPH addition by LC-MS/MS analysis", "assay_type": "ADME"}, "MV4-11 [8]": {"system": "MV4-11", "assay": "Antitumor activity against human MV4-11 cells xenografted in Harlan nude mouse assessed as tumor growth inhibition at 5 mg/kg, ig bid for 20 days relative to control", "assay_type": "functional", "conditions": "MV4-11, po, 480 h, read-out: TGI"}, "[9]": {"biological_target": "Serine/threonine-protein kinase Nek6 (Homo sapiens) (UniProt Q9HC98)", "assay": "Inhibition of human NEK6 at 0.1 uM relative to control"}, "[10]": {"system": "Platelet-derived growth factor receptor alpha (Homo sapiens), P16234 [D842V]", "sequence (P16234 whole entry D842V)": "as the sequence (P16234 whole entry) above, with D842V counted along it", "assay": "Inhibition of human PDGFRalpha D842V mutant at 0.1 uM relative to control"}, "[11]": {"assay": "Cmax in Balb/c nude mouse at 40 mg/kg, po via gavage by LC-MS/MS analysis", "assay_type": "ADME, organism-based", "design": "dose 40 mg/kg, route oral", "conditions": "in vivo"}, "[12]": {"biological_target": "T1, Platelet-derived growth factor receptor alpha", "assay": "Inhibition of human PDGFRalpha"}, "KG-1": {"system": "KG-1", "assay": "Antiproliferative activity against human KG1 cells harboring wild type FLT3 after 72 hrs by MTS assay", "assay_type": "functional, cell-based", "conditions": "KG-1, 72 h"}, "[13]": {"biological_target": "Ribosomal protein S6 kinase beta-1 (Homo sapiens) (UniProt P23443)", "assay": "Inhibition of human RPS6KB1 at 0.1 uM relative to control"}, "[14]": {"biological_target": "Vascular endothelial growth factor receptor 3 (Homo sapiens) (UniProt P35916)", "sequence (P35916 whole entry)": "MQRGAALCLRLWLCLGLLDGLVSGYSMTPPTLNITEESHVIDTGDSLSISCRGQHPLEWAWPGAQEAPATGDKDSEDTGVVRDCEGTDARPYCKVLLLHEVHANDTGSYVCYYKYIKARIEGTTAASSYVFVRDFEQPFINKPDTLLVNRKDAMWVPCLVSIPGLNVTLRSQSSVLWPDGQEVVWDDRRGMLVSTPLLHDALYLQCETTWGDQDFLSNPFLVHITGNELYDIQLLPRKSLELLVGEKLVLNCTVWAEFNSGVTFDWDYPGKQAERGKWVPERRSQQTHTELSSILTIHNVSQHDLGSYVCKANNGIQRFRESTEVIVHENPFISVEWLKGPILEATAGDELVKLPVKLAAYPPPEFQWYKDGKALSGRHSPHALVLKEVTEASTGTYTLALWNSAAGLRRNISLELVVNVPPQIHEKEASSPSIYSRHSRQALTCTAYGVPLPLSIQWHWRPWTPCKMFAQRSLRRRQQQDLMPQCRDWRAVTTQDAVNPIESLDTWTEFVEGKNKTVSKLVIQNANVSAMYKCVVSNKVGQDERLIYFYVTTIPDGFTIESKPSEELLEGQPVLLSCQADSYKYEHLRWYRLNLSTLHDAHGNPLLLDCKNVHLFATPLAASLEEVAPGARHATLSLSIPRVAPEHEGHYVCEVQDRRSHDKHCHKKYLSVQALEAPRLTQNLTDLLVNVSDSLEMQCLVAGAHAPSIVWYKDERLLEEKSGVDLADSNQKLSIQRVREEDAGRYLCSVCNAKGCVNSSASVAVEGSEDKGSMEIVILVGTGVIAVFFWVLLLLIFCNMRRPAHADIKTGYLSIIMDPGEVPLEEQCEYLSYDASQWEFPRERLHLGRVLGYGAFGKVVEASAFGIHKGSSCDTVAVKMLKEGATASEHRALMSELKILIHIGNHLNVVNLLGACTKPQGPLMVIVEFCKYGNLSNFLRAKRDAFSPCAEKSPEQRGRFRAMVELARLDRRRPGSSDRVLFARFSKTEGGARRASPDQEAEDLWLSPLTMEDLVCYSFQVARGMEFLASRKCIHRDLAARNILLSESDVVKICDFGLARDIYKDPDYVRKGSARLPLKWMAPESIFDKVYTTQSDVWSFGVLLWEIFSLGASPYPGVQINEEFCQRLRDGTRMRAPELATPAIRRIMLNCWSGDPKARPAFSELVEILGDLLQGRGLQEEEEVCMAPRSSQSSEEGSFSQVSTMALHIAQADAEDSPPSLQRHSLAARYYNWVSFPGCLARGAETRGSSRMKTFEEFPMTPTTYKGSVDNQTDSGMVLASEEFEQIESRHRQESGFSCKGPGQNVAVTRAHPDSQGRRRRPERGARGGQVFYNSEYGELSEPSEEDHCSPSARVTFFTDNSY", "assay": "Inhibition of human VEGFR3 at 0.1 uM relative to control"}, "[15]": {"system": "Receptor-type tyrosine-protein kinase FLT3 (Homo sapiens), P36888 [D835Y]", "conditions": "0.1 uM"}, "[16]": {"biological_target": "Receptor-type tyrosine-protein kinase FLT3 (Homo sapiens, UniProt P36888)", "assay": "Inhibition of human FLT3"}, "[17]": {"biological_target": "T3, Mast/stem cell growth factor receptor Kit (Homo sapiens, UniProt P10721)", "T3 sequence (P10721 whole entry)": "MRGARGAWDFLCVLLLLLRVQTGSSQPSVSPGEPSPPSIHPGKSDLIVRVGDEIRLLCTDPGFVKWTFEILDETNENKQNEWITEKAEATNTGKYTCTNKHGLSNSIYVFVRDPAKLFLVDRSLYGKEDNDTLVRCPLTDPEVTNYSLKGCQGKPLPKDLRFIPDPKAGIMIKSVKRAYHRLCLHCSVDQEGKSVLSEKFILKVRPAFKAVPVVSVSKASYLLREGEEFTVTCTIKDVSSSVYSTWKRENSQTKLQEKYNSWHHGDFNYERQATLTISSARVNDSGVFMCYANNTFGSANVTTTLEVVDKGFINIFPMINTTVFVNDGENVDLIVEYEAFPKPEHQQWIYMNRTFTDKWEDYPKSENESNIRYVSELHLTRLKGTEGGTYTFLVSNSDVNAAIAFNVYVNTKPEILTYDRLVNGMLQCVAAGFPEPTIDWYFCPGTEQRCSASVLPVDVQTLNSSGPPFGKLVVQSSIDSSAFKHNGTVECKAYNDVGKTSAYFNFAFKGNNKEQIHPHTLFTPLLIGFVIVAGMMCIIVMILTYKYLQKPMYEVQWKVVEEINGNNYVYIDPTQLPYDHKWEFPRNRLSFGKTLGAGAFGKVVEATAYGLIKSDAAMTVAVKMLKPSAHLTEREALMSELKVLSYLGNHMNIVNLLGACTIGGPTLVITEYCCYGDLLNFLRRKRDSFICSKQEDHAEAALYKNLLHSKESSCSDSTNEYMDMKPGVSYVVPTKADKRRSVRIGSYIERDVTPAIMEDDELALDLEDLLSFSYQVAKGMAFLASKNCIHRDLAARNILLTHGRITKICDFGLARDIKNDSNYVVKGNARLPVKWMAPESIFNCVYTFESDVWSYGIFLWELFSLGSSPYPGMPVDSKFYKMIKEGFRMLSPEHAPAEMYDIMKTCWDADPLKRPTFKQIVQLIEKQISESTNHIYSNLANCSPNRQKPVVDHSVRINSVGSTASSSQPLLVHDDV", "assay": "Inhibition of human KIT at 0.1 uM relative to control"}, "[18]": {"assay": "AUC (0 to infinity) in Balb/c nude mouse at 40 mg/kg, po via gavage by LC-MS/MS analysis", "assay_type": "ADME, organism-based", "design": "dose 40 mg/kg, time infinity, route oral", "conditions": "in vivo"}, "[19]": {"biological_target": "Tyrosine-protein kinase JAK2 (Homo sapiens) (UniProt O60674)", "assay": "Inhibition of human JAK2 at 0.1 uM relative to control"}, "[20]": {"biological_target": "Tyrosine-protein kinase receptor UFO (Homo sapiens) (UniProt P30530)", "assay": "Inhibition of human AXL at 0.1 uM relative to control"}, "MDA-MB-231": {"system": "MDA-MB-231", "assay": "Antiproliferative activity against human MDA-MB-231 cells harboring K-Ras/B-Raf after 72 hrs by MTS assay", "assay_type": "functional, cell-based", "conditions": "MDA-MB-231, 72 h"}, "[21]": {"assay": "Tmax in Balb/c nude mouse at 40 mg/kg, po via gavage by LC-MS/MS analysis", "assay_type": "ADME, organism-based", "conditions": "in vivo"}, "[22]": {"biological_target": "Proto-oncogene tyrosine-protein kinase receptor Ret (Homo sapiens) (UniProt P07949)", "sequence (P07949 whole entry)": "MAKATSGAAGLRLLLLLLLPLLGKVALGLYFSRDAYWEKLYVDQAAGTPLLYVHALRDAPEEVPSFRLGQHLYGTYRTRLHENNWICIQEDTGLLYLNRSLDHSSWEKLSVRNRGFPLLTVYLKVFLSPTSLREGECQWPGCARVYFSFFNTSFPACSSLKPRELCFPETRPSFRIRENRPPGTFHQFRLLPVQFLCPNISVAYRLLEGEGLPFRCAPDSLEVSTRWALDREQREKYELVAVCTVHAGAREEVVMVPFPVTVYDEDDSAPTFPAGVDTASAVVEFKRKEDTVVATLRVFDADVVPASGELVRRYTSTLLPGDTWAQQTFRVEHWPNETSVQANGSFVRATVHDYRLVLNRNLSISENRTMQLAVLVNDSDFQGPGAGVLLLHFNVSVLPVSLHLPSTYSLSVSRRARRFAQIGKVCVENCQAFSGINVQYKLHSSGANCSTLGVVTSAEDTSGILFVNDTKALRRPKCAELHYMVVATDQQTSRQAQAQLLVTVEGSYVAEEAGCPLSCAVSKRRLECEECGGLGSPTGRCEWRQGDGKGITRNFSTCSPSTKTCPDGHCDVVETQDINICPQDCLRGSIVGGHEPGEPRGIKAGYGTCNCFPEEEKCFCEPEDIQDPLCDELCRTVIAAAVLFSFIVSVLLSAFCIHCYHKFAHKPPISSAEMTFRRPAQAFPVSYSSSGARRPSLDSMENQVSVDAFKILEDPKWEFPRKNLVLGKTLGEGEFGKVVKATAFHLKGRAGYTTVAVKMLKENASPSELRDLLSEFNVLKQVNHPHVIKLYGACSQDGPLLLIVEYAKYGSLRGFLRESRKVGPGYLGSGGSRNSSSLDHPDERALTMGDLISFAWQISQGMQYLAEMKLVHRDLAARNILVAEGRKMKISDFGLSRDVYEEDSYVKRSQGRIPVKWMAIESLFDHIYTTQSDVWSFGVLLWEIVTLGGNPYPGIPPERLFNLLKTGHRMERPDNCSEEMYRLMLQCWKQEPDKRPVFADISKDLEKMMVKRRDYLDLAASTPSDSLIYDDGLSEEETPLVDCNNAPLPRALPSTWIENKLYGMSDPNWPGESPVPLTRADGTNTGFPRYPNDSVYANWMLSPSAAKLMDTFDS", "assay": "Inhibition of human RET at 0.1 uM relative to control"}, "[23]": {"assay": "Half life in Balb/c nude mouse at 40 mg/kg, po via gavage by LC-MS/MS analysis", "assay_type": "ADME, organism-based", "conditions": "in vivo"}, "[24]": {"assay": "Inhibition of human FLT3 ITD mutant"}, "[25]": {"assay": "Oral bioavailability in Balb/c nude mouse at 40 mg/kg via gavage by LC-MS/MS analysis", "assay_type": "ADME, organism-based", "conditions": "in vivo"}, "Mus musculus": {"system": "Mus musculus", "assay": "Toxicity in Harlan nude mouse xenografted with human MV4-11 cells assessed as mouse death at 5 to 80 mg/kg, ig bid for 20 days", "assay_type": "organism-based", "conditions": "in vivo, po, 480 h"}, "[26]": {"biological_target": "Mitogen-activated protein kinase 1 (Homo sapiens) (UniProt P28482)", "assay": "Inhibition of human MAPK1 at 0.1 uM relative to control"}, "[27]": {"biological_target": "Hepatocyte growth factor receptor (Homo sapiens) (UniProt P08581)", "assay": "Inhibition of human c-MET at 0.1 uM relative to control"}, "[28]": {"biological_target": "T3, Mast/stem cell growth factor receptor Kit", "assay": "Inhibition of human KIT"}, "[29]": {"biological_target": "AMP-activated protein kinase (AMPK) alpha-1/beta-1/gamma-1 (Homo sapiens) (UniProt P54619+Q9Y478+Q13131)", "assay": "Inhibition of human AMPK alpha1/beta1/gamma1 at 0.1 uM relative to control", "assay_type": "protein-complex assay"}, "Cytochrome P450 3A4 [30]": {"biological_target": "T2, Cytochrome P450 3A4", "assay": "Inhibition of microsomal CYP3A4 (unknown origin) using testosterone as substrate preincubated for 5 mins followed by NADPH addition by LC-MS/MS analysis", "assay_type": "ADME"}, "NCI-H2228": {"system": "NCI-H2228", "assay": "Antiproliferative activity against human NCI-H2228 cells harboring ALK after 72 hrs by MTS assay", "assay_type": "functional, cell-based", "conditions": "NCI-H2228, 72 h"}, "HUVEC": {"system": "HUVEC", "assay": "Antiproliferative activity against HUVEC after 72 hrs by MTS assay", "assay_type": "cell-based", "conditions": "Homo sapiens"}, "Homo sapiens": {"species_on_record": "Homo sapiens", "assay": "Inhibition of human FLT3 ITD mutant at 0.1 uM relative to control"}, "[31]": {"biological_target": "Platelet-derived growth factor receptor beta (Homo sapiens) (UniProt P09619)", "assay": "Inhibition of human PDGFRbeta at 0.1 uM relative to control"}, "[32]": {"system": "Platelet-derived growth factor receptor alpha (Homo sapiens), P16234 [V561D]", "assay": "Inhibition of human PDGFRalpha V561D mutant at 0.1 uM relative to control"}, "MV4-11 [33]": {"system": "MV4-11", "assay": "Antitumor activity against human MV4-11 cells xenografted in Harlan nude mouse assessed as tumor growth inhibition at 20 mg/kg, ig bid for 20 days relative to control", "assay_type": "functional", "conditions": "MV4-11, po, 480 h, read-out: TGI"}},
  "data": [
    {"smiles": "Cc1[nH]c(/C=C2\\C(=O)Nc3ccc(F)cc32)c(C)c1NC(=O)[C@H]1CCCN1.Cl", "values": [
      {"measurement": "IC50", "setting": "786-0", "value": 12.2, "unit": "µM"},
      {"measurement": "IC50", "setting": "Cytochrome P450 1A2", "value": 17.7, "unit": "µM"},
      {"measurement": "inhibition", "setting": "[1]", "value": 58, "unit": "%"},
      {"measurement": "inhibition", "setting": "[2]", "value": -3, "unit": "%"},
      {"measurement": "inhibition", "setting": "[3]", "value": 30, "unit": "%"},
      {"measurement": "IC50", "setting": "MV4-11 [4]", "value": 0.0248, "unit": "µM"},
      {"measurement": "IC50", "setting": "Cytochrome P450 2C8", "value": "> 33", "unit": "µM"},
      {"measurement": "inhibition", "setting": "[5]", "value": 49, "unit": "%"},
      {"measurement": "inhibition in vivo at 40 mg/kg", "setting": "MV4-11 [6]", "value": 100, "unit": "%"},
      {"measurement": "IC50", "setting": "Cytochrome P450 3A4 [7]", "value": "> 33", "unit": "µM"},
      {"measurement": "inhibition in vivo at 5 mg/kg", "setting": "MV4-11 [8]", "value": 52.4, "unit": "%"},
      {"measurement": "inhibition", "setting": "[9]", "value": 8, "unit": "%"},
      {"measurement": "inhibition", "setting": "[10]", "value": 21, "unit": "%"},
      {"measurement": "Cmax", "setting": "[11]", "value": 709, "unit": "ng/mL"},
      {"measurement": "IC50", "setting": "[12]", "value": 0.175, "unit": "µM"},
      {"measurement": "IC50", "setting": "KG-1", "value": 24.5, "unit": "µM"},
      {"measurement": "inhibition", "setting": "[13]", "value": 8, "unit": "%"},
      {"measurement": "inhibition", "setting": "[14]", "value": 47, "unit": "%"},
      {"measurement": "inhibition", "setting": "[15]", "value": 93, "unit": "%"},
      {"measurement": "IC50", "setting": "[16]", "value": 0.0053, "unit": "µM"},
      {"measurement": "inhibition", "setting": "[17]", "value": 85, "unit": "%"},
      {"measurement": "AUC(0-inf)", "setting": "[18]", "value": 3070, "unit": "ng·h/mL"},
      {"measurement": "inhibition", "setting": "[19]", "value": -4, "unit": "%"},
      {"measurement": "inhibition", "setting": "[20]", "value": 44, "unit": "%"},
      {"measurement": "IC50", "setting": "MDA-MB-231", "value": "> 20", "unit": "µM"},
      {"measurement": "Tmax", "setting": "[21]", "value": 2, "unit": "h"},
      {"measurement": "inhibition", "setting": "[22]", "value": 88, "unit": "%"},
      {"measurement": "half-life", "setting": "[23]", "value": 1.6, "unit": "h"},
      {"measurement": "IC50", "setting": "[24]", "value": 0.0007, "unit": "µM"},
      {"measurement": "bioavailability", "setting": "[25]", "value": 59, "unit": "%"},
      {"measurement": "Activity", "setting": "Mus musculus", "value": "Non-Toxic"},
      {"measurement": "inhibition", "setting": "[26]", "value": -7, "unit": "%"},
      {"measurement": "inhibition", "setting": "[27]", "value": -8, "unit": "%"},
      {"measurement": "IC50", "setting": "[28]", "value": 0.227, "unit": "µM"},
      {"measurement": "inhibition", "setting": "[29]", "value": 38, "unit": "%"},
      {"measurement": "IC50", "setting": "Cytochrome P450 3A4 [30]", "value": "> 33", "unit": "µM"},
      {"measurement": "IC50", "setting": "NCI-H2228", "value": 3.44, "unit": "µM"},
      {"measurement": "IC50", "setting": "HUVEC", "value": 11.3, "unit": "µM"},
      {"measurement": "inhibition", "setting": "Homo sapiens", "value": 105, "unit": "%"},
      {"measurement": "inhibition", "setting": "[31]", "value": 48, "unit": "%"},
      {"measurement": "inhibition", "setting": "[32]", "value": 82, "unit": "%"},
      {"measurement": "inhibition in vivo at 20 mg/kg", "setting": "MV4-11 [33]", "value": 99.8, "unit": "%"}
    ]}
  ]
}
